Results from patent US5447720A, “Composition and method for treatment of hemoglobinopathies” (Fadulu; Sunday O., priority 1993, dated 1995).

Legend:
HbF = settings: sickle cell patients; words; cited from earlier work
sickling [1] = assay: Anti-sickling activity of acid components (test not specified); settings: words
sickling [2] = settings: words; cited from earlier work

Row | Compound | anti-sickling activity of less polar acids (sickling [1]) | other results
1 | arginine butyrate | – | effect on HbF levels (literature) (HbF): rapid stimulation of the HbF
2 | CCCCCCCC/C=C\CCCCCCCC(=O)O [oleic acids] | little if any anti-sickling activity | –
3 | CC/C=C\C/C=C\C/C=C\CCCCCCCC(=O)O [linolenic] | little if any anti-sickling activity | –
4 | O=C(O)c1ccccc1CO [2-hydroxymethylbenzoic acid] | – | in vitro anti-sickling effect (literature) (sickling [2]): in vitro nonsickling characteristics
5 | CCCCC/C=C\C/C=C\CCCCCCCC(=O)O [linoleic] | little if any anti-sickling activity | –
6 | Nc1ncn([C@@H]2O[C@H](CO)[C@@H](O)[C@H]2O)c(=O)n1 [5-azacytidine] | – | effect on HbF levels (literature) (HbF): increased HbF levels
7 | CCCCCCCCCCCCCCCCCC(=O)O [stearic] | little if any anti-sickling activity | –
